Measured values reported in patent US20130337486A1, “MICROFLUIDIC DEVICE FOR HIGH-[…] GRADIENT AND DOSE RESPONSE STUDIES” (UCSD Tech Transfer Office, priority 2005, published 2013).

Tests used:
Fus1-yEGFP = Fus1-yEGFP expression in yeast cell clusters exposed to a pheromone gradient; assay type: cell-based
Method: (§1) Using a device of the invention such as that shown in FIG. 1, analysis of phenotypic dose response in single cells was performed. Yeast cells were grown in YPD media to mid-log phase, and concentrated 10-fold before loading into syringes. The maximum pheromone concentrations used in the experiments was typically 75-100 nM, with varying minimum and maximum ranges for specific experiments. Pheromone diffusion was estimated by fluorescence imaging of the diffusion of Alexa Fluor dye 555 Hydrozide (Molecular Probes), with the MW of approximately 1150 Da (cf. 1684 Da MW of the a-factor), which was used at the concentration of 5 μM. […]
(§2) Images were acquired using the Nikon Eclipse TE2000-U inverted epi-fluorescence microscope, using 20× (evaluation of the gradient values), and 100× (oil immersion; evaluation of yEGFP fluorescence) objectives. Phase contrast images were taken with automatic exposure control, whereas most fluorescence measurements involved manually specified fixed exposure times. Typical gradient measurements using Alexa Fluor 555 dye were obtained using red filter (G-2 EIC, 540/25 excitation wavelength) at a fixed exposure time of 1 sec, whereas yEGFP-mediated fluorescence was obtained using the green filter (YEL-GFP HQ, 500/20 excitation wavelength) at fixed exposure times of 3 secs. […]

a-Type Yeast = test: Phenotypic dose response of single yeast cells to a pheromone gradient in the microfluidic device; assay type: cell-based
Method: as §1, §2

α-factor
pheromone concentration range with clear bimodal nuclear Fus1-yEGFP response (Fus1-yEGFP; six hours after exposure to 0-75 nM pheromone gradient): 15 to 45 nM
difference in Fus1-yEGFP expression between SM cells and cells of all other phenotypes in the bimodal region (Fus1-yEGFP; six hours, 0-75 nM pheromone gradient, bimodal region): approximately 1.7 fold
phenotype after pre-incubation in high uniform pheromone concentration (a-Type Yeast; 75 nM uniform pheromone for 4 hrs): shmoo formation by all cells
pheromone concentration range in which percentages of budded (BD), cell cycle arrest (CCA) and SM cells were comparable (a-Type Yeast; pheromone gradients from 0 up to 100 nM in test chambers): 15 to 40 nM
